{
  "source": "patent US10770169B2",
  "about": "“Method of providing a treatment to a subject based on a dynamic pathway map” (THE REGENTS OF THE UNIVERSITY OF CALIFORNIA, priority 2010, dated 2020)",
  "key": {"[1]": {"test_system": "luminal, basal, claudin-low and ERBB2AMP breast cancer cell lines", "test": "Associations of clinically relevant subtypes and response (non-parametric ANOVA or t-test on GI50 ranks)", "format": "cell-based, human", "conditions": "Table 6; most sensitive subtype, FDR p<0.20", "summary_of_the_method": "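Significance was set at FDR p<0.20 after combining p-values across three test sets. Subtype–response associations came from rank-based non-parametric ANOVA or t-tests on GI50. For three-class comparisons, post-hoc tests of each group against the rest identified the most sensitive group, with FDR correction.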"}, "[2]": {"test_system": "panel of 55 breast cancer cell lines", "test": "Cell growth inhibition assay (Cell Titer Glo, 72 h, 9 doses; GI50, TGI, LC50)", "format": "cell-based, human", "conditions": "Homo sapiens, read-out: GI50 (converted)"}},
  "note": "Like-named read-outs stand apart in the source and are kept apart here.",
  "data": [
    {"smiles": "CCNCCCNC/C=C\\CNCCCNCC", "note": "[CGC-11047]", "values": [
      {"measurement": "Subtype specificity", "setting": "[1]", "result": "Basal"},
      {"measurement": "GI50", "setting": "[2]; 600MPE cell line, censored GI50 values", "result": 468, "unit": "µM"},
      {"measurement": "GI50", "setting": "[2]; AU565, AU565 cell line, censored GI50 values", "result": 288, "unit": "µM"},
      {"measurement": "GI50", "setting": "[2]; AU565, cell line AU565", "result": 288, "unit": "µM"},
      {"measurement": "GI50", "setting": "[2]; BT-474, BT474 cell line, censored GI50 values", "result": 269, "unit": "µM"},
      {"measurement": "GI50", "setting": "[2]; BT-474, cell line BT474", "result": 269, "unit": "µM"},
      {"measurement": "GI50", "setting": "[2]; BT-483, BT483 cell line, censored GI50 values", "result": 589, "unit": "µM"},
      {"measurement": "GI50", "setting": "[2]; BT-483, cell line BT483", "result": 589, "unit": "µM"},
      {"measurement": "GI50", "setting": "[2]; BT-549, BT549 cell line, censored GI50 values", "result": 29.5, "unit": "µM"},
      {"measurement": "GI50", "setting": "[2]; BT-549, cell line BT549", "result": 29.5, "unit": "µM"},
      {"measurement": "GI50", "setting": "[2]; CAMA-1, CAMA1 cell line, censored GI50 values", "result": 1260, "unit": "µM"},
      {"measurement": "GI50", "setting": "[2]; CAMA-1, cell line CAMA1", "result": 1260, "unit": "µM"},
      {"measurement": "GI50", "setting": "[2]; HCC38, HCC38 cell line, censored GI50 values", "result": 11.7, "unit": "µM"},
      {"measurement": "GI50", "setting": "[2]; HCC38, cell line HCC38", "result": 11.7, "unit": "µM"},
      {"measurement": "GI50", "setting": "[2]; HCC70, HCC70 cell line, censored GI50 values", "result": 2.09, "unit": "µM"},
      {"measurement": "GI50", "setting": "[2]; HCC70, cell line HCC70", "result": 2.09, "unit": "µM"},
      {"measurement": "GI50", "setting": "[2]; HCC202, HCC202 cell line, censored GI50 values", "result": 14.5, "unit": "µM"},
      {"measurement": "GI50", "setting": "[2]; HCC202, cell line HCC202", "result": 14.5, "unit": "µM"},
      {"measurement": "GI50", "setting": "[2]; HCC1143, HCC1143 cell line, censored GI50 values", "result": 112, "unit": "µM"},
      {"measurement": "GI50", "setting": "[2]; HCC1143, cell line HCC1143", "result": 112, "unit": "µM"},
      {"measurement": "GI50", "setting": "[2]; HCC1187, HCC1187 cell line, censored GI50 values", "result": 1550, "unit": "µM"},
      {"measurement": "GI50", "setting": "[2]; HCC1187, cell line HCC1187", "result": 1550, "unit": "µM"},
      {"measurement": "GI50", "setting": "[2]; HCC1395, HCC1395 cell line, censored GI50 values", "result": 87.1, "unit": "µM"},
      {"measurement": "GI50", "setting": "[2]; HCC1395, cell line HCC1395", "result": 87.1, "unit": "µM"},
      {"measurement": "GI50", "setting": "[2]; HCC1419, HCC1419 cell line, censored GI50 values", "result": 14.1, "unit": "µM"},
      {"measurement": "GI50", "setting": "[2]; HCC1419, cell line HCC1419", "result": 14.1, "unit": "µM"},
      {"measurement": "GI50", "setting": "[2]; HCC1428, HCC1428 cell line, censored GI50 values", "result": 204, "unit": "µM"},
      {"measurement": "GI50", "setting": "[2]; HCC1428, cell line HCC1428", "result": 204, "unit": "µM"},
      {"measurement": "GI50", "setting": "[2]; HCC1500, HCC1500 cell line, censored GI50 values", "result": 63.1, "unit": "µM"},
      {"measurement": "GI50", "setting": "[2]; HCC1500, cell line HCC1500", "result": 63.1, "unit": "µM"},
      {"measurement": "GI50", "setting": "[2]; HCC1806, HCC1806 cell line, censored GI50 values", "result": 74.1, "unit": "µM"},
      {"measurement": "GI50", "setting": "[2]; HCC1806, cell line HCC1806", "result": 74.1, "unit": "µM"},
      {"measurement": "GI50", "setting": "[2]; HCC1937, HCC1937 cell line, censored GI50 values", "result": 6.92, "unit": "µM"},
      {"measurement": "GI50", "setting": "[2]; HCC1937, cell line HCC1937", "result": 6.92, "unit": "µM"},
      {"measurement": "GI50", "setting": "[2]; HCC1954, HCC1954 cell line, censored GI50 values", "result": 0.692, "unit": "µM"},
      {"measurement": "GI50", "setting": "[2]; HCC1954, cell line HCC1954", "result": 0.692, "unit": "µM"},
      {"measurement": "GI50", "setting": "[2]; HCC2185 cell line, censored GI50 values", "result": 407, "unit": "µM"},
      {"measurement": "GI50", "setting": "[2]; HCC3153 cell line, censored GI50 values", "result": 5.75, "unit": "µM"},
      {"measurement": "GI50", "setting": "[2]; LY2 cell line, censored GI50 values", "result": 1510, "unit": "µM"},
      {"measurement": "GI50", "setting": "[2]; MCF7, MCF7 cell line, censored GI50 values", "result": 85.1, "unit": "µM"},
      {"measurement": "GI50", "setting": "[2]; MCF7, cell line MCF7", "result": 85.1, "unit": "µM"},
      {"measurement": "GI50", "setting": "[2]; MDA-MB-134-VI, MDAMB134VI cell line, censored GI50 values", "result": 1070, "unit": "µM"},
      {"measurement": "GI50", "setting": "[2]; MDA-MB-157, MDAMB157 cell line, censored GI50 values", "result": 1020, "unit": "µM"},
      {"measurement": "GI50", "setting": "[2]; MDA-MB-157, cell line MDAMB157", "result": 1020, "unit": "µM"},
      {"measurement": "GI50", "setting": "[2]; MDA-MB-175-VII, MDAMB175VII cell line, censored GI50 values", "result": 617, "unit": "µM"},
      {"measurement": "GI50", "setting": "[2]; MDA-MB-231, MDAMB231 cell line, censored GI50 values", "result": 2510, "unit": "µM"},
      {"measurement": "GI50", "setting": "[2]; MDA-MB-231, cell line MDAMB231", "result": 2510, "unit": "µM"},
      {"measurement": "GI50", "setting": "[2]; MDA-MB-361, MDAMB361 cell line, censored GI50 values", "result": 708, "unit": "µM"},
      {"measurement": "GI50", "setting": "[2]; MDA-MB-361, cell line MDAMB361", "result": 708, "unit": "µM"},
      {"measurement": "GI50", "setting": "[2]; MDA-MB-415, MDAMB415 cell line, censored GI50 values", "result": 75.9, "unit": "µM"},
      {"measurement": "GI50", "setting": "[2]; MDA-MB-415, cell line MDAMB415", "result": 75.9, "unit": "µM"},
      {"measurement": "GI50", "setting": "[2]; MDA-MB-436, MDAMB436 cell line, censored GI50 values", "result": 380, "unit": "µM"},
      {"measurement": "GI50", "setting": "[2]; MDA-MB-436, cell line MDAMB436", "result": 380, "unit": "µM"},
      {"measurement": "GI50", "setting": "[2]; MDA-MB-453, MDAMB453 cell line, censored GI50 values", "result": 501, "unit": "µM"},
      {"measurement": "GI50", "setting": "[2]; MDA-MB-453, cell line MDAMB453", "result": 501, "unit": "µM"},
      {"measurement": "GI50", "setting": "[2]; MDA-MB-468, MDAMB468 cell line, censored GI50 values", "result": 0.891, "unit": "µM"},
      {"measurement": "GI50", "setting": "[2]; MDA-MB-468, cell line MDAMB468", "result": 0.891, "unit": "µM"},
      {"measurement": "GI50", "setting": "[2]; SK-BR-3, cell line SKBR3", "result": 5010, "unit": "µM"},
      {"measurement": "GI50", "setting": "[2]; SUM52PE, cell line SUM52PE", "result": 3.55, "unit": "µM"},
      {"measurement": "GI50", "setting": "[2]; SUM149PT, SUM149PT cell line, censored GI50 values", "result": 28.8, "unit": "µM"},
      {"measurement": "GI50", "setting": "[2]; SUM149PT, cell line SUM149PT", "result": 28.8, "unit": "µM"},
      {"measurement": "GI50", "setting": "[2]; SUM185PE, cell line SUM185PE", "result": 501, "unit": "µM"},
      {"measurement": "GI50", "setting": "[2]; SUM1315MO2, SUM1315MO2 cell line, censored GI50 values", "result": 708, "unit": "µM"},
      {"measurement": "GI50", "setting": "[2]; SUM-159-PT, SUM159PT cell line, censored GI50 values", "result": 107, "unit": "µM"},
      {"measurement": "GI50", "setting": "[2]; SUM-159-PT, cell line SUM159PT", "result": 107, "unit": "µM"},
      {"measurement": "GI50", "setting": "[2]; T47D, cell line T47D", "result": 9.33, "unit": "µM"},
      {"measurement": "GI50", "setting": "[2]; UACC-812, cell line UACC812", "result": 339, "unit": "µM"},
      {"measurement": "GI50", "setting": "[2]; UACC-893, cell line UACC893", "result": 2090, "unit": "µM"},
      {"measurement": "GI50", "setting": "[2]; ZR-75-1, cell line ZR751", "result": 501, "unit": "µM"},
      {"measurement": "GI50", "setting": "[2]; ZR-75-30, cell line ZR7530", "result": 5010, "unit": "µM"},
      {"measurement": "GI50", "setting": "[2]; ZR-75B, cell line ZR75B", "result": 562, "unit": "µM"},
      {"measurement": "GI50", "setting": "[2]; cell line 600MPE", "result": 468, "unit": "µM"},
      {"measurement": "GI50", "setting": "[2]; cell line HCC2185", "result": 407, "unit": "µM"},
      {"measurement": "GI50", "setting": "[2]; cell line HCC3153", "result": 5.75, "unit": "µM"},
      {"measurement": "GI50", "setting": "[2]; cell line LY2", "result": 1510, "unit": "µM"},
      {"measurement": "GI50", "setting": "[2]; cell line MDAMB134V", "result": 1070, "unit": "µM"},
      {"measurement": "GI50", "setting": "[2]; cell line MDAMB175V", "result": 617, "unit": "µM"},
      {"measurement": "GI50", "setting": "[2]; cell line SUM1315MO", "result": 708, "unit": "µM"}
    ]}
  ]
}
